Data reported in PMC9971056 (JHEP Reports, 2022).

Test system: HepG2 cells
Test: LD50 in HepG2 cells
Format: cell-based, Human

## CC1(C)CC[C@]2(C(=O)O)CC[C@]3(C)[C@H](C(=O)C=C4[C@@]5(C)C=C(C#N)C(=O)C(C)(C)[C@@H]5CC[C@]43C)[C@@H]2C1 [bardoxolone]
  LD50 in HepG2 cells: < 1 µM
